Literature values in patent publication US8242172B2, “2,2-dimethylbutyric acid oral pharmaceutical compositions” (Trustees of Boston University, priority 1998, dated 2012).

Legend:
ΔF508-CFTR [1] = target: T1, ΔF508-CFTR (Homo sapiens, UniProt P13569, DEL508-508); set-up: primary cultures of nasal polyp epithelia from CF patients (ΔF508 homozygous or heterozygous); endogenous in cells; host or cells: primary nasal polyp epithelia from CF patients; IB3-1 CF bronchial epithelial cell line; conditions: IB3-1 cells, 2.5 mM
T1 sequence (P13569 with tags, fused parts or gaps DEL508-508): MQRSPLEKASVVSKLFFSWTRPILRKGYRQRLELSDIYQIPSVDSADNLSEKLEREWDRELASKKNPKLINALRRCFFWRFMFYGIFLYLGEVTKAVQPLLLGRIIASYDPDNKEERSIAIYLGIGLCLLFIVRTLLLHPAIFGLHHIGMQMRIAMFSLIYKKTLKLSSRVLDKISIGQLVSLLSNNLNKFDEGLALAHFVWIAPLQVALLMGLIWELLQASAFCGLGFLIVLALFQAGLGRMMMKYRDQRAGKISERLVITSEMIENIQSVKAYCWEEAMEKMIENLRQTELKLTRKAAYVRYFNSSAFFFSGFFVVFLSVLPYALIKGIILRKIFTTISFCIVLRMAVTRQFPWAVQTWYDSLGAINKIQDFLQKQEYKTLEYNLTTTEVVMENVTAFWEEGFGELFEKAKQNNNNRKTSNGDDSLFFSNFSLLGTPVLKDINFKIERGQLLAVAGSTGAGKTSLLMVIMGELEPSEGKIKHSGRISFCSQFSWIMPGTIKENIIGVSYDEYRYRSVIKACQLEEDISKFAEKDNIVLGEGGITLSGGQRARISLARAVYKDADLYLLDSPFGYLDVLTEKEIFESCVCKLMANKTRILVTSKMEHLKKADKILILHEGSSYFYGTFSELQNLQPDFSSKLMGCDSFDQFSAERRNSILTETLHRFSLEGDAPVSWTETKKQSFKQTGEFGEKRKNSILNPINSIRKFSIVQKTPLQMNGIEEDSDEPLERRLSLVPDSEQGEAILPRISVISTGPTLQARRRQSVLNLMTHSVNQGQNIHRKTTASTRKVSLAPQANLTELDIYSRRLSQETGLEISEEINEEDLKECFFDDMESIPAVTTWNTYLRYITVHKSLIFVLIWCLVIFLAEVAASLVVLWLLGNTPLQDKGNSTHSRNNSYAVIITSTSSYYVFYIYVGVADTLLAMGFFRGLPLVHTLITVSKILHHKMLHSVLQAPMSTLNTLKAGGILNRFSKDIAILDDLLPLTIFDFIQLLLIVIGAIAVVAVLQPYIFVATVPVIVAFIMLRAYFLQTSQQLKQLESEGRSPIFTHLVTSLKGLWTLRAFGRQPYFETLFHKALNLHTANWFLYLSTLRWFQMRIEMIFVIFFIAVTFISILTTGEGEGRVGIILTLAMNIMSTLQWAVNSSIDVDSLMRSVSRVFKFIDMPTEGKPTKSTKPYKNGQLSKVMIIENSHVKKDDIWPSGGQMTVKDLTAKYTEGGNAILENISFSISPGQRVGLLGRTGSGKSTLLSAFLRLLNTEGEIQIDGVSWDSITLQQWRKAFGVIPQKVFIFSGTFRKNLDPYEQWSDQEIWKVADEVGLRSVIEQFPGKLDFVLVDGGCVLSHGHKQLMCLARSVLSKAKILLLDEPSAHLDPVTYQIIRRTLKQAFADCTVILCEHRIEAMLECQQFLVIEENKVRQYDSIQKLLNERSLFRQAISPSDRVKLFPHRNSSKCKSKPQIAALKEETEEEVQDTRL

ΔF508-CFTR [2] = target: T1, ΔF508-CFTR; set-up: primary cultures of nasal polyp epithelia from CF patients (ΔF508 homozygous or heterozygous); endogenous in cells; host or cells: primary nasal polyp epithelia from CF patients; IB3-1 CF bronchial epithelial cell line; conditions: 0.1 and 2 mM, up to 7 days in culture; primary nasal polyp epithelia from CF patients or IB3-1
CF patients = conditions: human, in vivo
ΔF508-CFTR [3] = conditions: IB3-1 cells, 0.1-1 mM; primary nasal epithelia, 5 mM
ΔF508-CFTR [4] = target: T1, ΔF508-CFTR; conditions: 1 M or 10%
ΔF508-CFTR [5] = target: T1, ΔF508-CFTR; conditions: up to 300 mM
IB3-1 cells = conditions: equimolar concentrations (1-2 mM)
ΔF508-CFTR [6] = conditions: 5 mM, 24 hours, C-127 cells

## O=C(O)CCCc1ccccc1 [4PBA, 4-phenylbutyrate]
ΔF508-CFTR [1]
  protein kinase A-activated, linear, 10 pS chloride channels at plasma membrane: chloride channels appeared at the plasma membrane
ΔF508-CFTR [2]
  forskolin-activated chloride secretion: restoration of forskolin-activated chloride secretion
CF patients
  clinical tolerability: not well tolerated
ΔF508-CFTR [3]
  higher molecular mass forms of CFTR (immunoblot): appearance of higher molecular mass forms of CFTR

## OCC(O)CO [glycerol]
ΔF508-CFTR [4]
  movement of ΔF508-CFTR from the ER to the plasma membrane: appears to facilitate movement of ΔF508-CFTR from the ER to the plasma membrane

## CCCC(=O)O [butyrate, butyric acid]
ΔF508-CFTR [5]
  cAMP-stimulation indicative of chloride ion transport: no increases in cAMP-stimulation was observed
IB3-1 cells
  cell morphology and growth rate: morphologic changes in IB3-1 cells, with rounding of cells and decreased growth rate
ΔF508-CFTR [6]
  ~180-kD mature glycosylated species of CFTR: not observed
  ΔF508-CFTR mRNA by Northern analysis: massive increase in ΔF508-CFTR mRNA

## arginine butyrate
Thalassemic patients; continuous administration at about 2000 mg/kg patient weight
  effectiveness at continuous administration: effective
Thalassemic patients; pulses, about 400 to 1500 mg/kg, thalassemic patients
  benefit measured by rise in fetal hemoglobin levels: surprisingly more beneficial
